Measurements as given in ChEMBL document CHEMBL4725389, “Novel Blocker of Onco SK3 Channels Derived from Scorpion Toxin Tamapin and Active against Migration of Cancer Cells” (ACS Med Chem Lett, 2020).
Activity calls are given as the source filed them. The calls are words filed in the database; no cut-off is given here. Positions of bridges follow the written chain, without caps; N, C: chain ends. Residues, ends and D or L forms follow the SMILES beside them.

Tests used:
[1] = target: Small conductance calcium-activated potassium channel protein 2 (Rattus norvegicus) (UniProt P70604); assay: Inhibition of recombinant rat SK2 expressed in HEK293 cells at 10 nM and holding potential at 0 mV and ramp voltage from -100 to 100 mV by whole cell patch clamp method relative to control; assay type: cell-based
Chain of Small conductance calcium-activated potassium channel protein 2 (Rattus norvegicus) (P70604 whole entry): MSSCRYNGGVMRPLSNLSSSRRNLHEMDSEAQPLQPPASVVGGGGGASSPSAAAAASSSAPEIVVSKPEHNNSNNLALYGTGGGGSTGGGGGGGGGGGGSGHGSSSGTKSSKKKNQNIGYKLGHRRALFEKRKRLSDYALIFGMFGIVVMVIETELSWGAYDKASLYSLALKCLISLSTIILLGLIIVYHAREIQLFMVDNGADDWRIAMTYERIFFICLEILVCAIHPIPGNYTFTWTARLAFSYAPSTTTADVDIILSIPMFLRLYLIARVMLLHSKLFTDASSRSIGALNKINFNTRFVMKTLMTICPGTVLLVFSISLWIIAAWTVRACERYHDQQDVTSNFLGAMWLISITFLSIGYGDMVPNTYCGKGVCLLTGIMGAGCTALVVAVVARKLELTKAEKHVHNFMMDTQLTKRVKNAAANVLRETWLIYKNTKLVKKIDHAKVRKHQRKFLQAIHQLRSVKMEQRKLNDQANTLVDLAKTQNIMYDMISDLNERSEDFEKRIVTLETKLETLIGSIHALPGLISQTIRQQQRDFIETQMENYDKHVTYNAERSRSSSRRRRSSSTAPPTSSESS

[2] = target: Small conductance calcium-activated potassium channel protein 3 (Homo sapiens, UniProt Q9UGI6); assay: Inhibition of recombinant human SK3 expressed in HEK293T cells at 10 nM and holding potential at 0 mV and ramp voltage from -100 to 100 mV by whole cell patch clamp method relative to control; assay type: cell-based; details: HEK-293T
Chain of Small conductance calcium-activated potassium channel protein 3 (Q9UGI6 whole entry): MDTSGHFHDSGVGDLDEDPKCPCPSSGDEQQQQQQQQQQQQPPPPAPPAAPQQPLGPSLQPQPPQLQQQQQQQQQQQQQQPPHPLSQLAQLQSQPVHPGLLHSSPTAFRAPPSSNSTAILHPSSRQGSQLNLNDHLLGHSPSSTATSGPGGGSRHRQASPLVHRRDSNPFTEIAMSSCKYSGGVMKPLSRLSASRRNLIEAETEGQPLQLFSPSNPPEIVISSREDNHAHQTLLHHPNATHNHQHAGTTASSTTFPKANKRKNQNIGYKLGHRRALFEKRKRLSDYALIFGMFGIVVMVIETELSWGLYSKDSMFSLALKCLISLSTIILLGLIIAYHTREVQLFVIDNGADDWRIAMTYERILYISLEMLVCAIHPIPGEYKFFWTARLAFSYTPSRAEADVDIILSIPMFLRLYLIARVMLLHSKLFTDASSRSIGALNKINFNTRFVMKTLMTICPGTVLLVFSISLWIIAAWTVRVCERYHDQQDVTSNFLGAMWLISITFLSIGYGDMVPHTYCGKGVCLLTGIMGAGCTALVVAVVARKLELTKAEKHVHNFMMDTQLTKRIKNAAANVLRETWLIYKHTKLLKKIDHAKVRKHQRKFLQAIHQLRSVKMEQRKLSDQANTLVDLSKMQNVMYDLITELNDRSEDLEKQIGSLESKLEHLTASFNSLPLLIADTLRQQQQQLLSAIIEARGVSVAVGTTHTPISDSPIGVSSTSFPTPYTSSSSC

inhibition [1] | inhibition [2] | Compound
40% | < 39% | CC[C@H](C)[C@@H]1NC(=O)[C@@H]2CSSC[C@H](NC(=O)[C@H](Cc3ccccc3)NC(=O)[C@H](C)N)C(=O)N[C@@H](CC(N)=O)C(=O)N[C@@H](CC(C)C)C(=O)N[C@@H](CCCNC(=N)N)C(=O)N[C@@H](CCCNC(=N)N)C(=O)N[C@H]3CSSC[C@H](NC(=O)[C@H](CCC(=O)O)NC(=O)[C@H](CCC(=O)O)NC(=O)CNC1=O)C(=O)N[C@@H](CCCCN)C(=O)N[C@H](C(=O)N[C@H](C(=O)N[C@@H](Cc1ccc(O)cc1)C(=O)N[C@@H](CC(N)=O)C(=O)O)C(C)C)CSSC[C@H](NC(=O)[C@H](CO)NC(=O)[C@H](CC(C)C)NC(=O)[C@H](CCC(=O)O)NC3=O)C(=O)N[C@@H](CCCNC(=N)N)C(=O)N[C@@H](CO)C(=O)N[C@@H](CC(C)C)C(=O)NCC(=O)N[C@@H](CC(C)C)C(=O)N[C@@H](CC(C)C)C(=O)NCC(=O)N[C@@H](CCCCN)C(=O)N2 (H-AFCNLRRCELSCRSLGLLGKCIGEECKCVYN-OH; disulfide 3-21, 8-26, 12-28)
40% | < 39% | CC[C@H](C)[C@@H]1NC(=O)[C@@H]2CSSC[C@H](NC(=O)[C@H](Cc3ccccc3)NC(=O)[C@H](C)N)C(=O)N[C@@H](CC(N)=O)C(=O)N[C@@H](CC(C)C)C(=O)N[C@@H](CCCNC(=N)N)C(=O)N[C@@H](CCCNC(=N)N)C(=O)N[C@H]3CSSC[C@H](NC(=O)[C@H](CCC(=O)O)NC(=O)[C@H](CCC(=O)O)NC(=O)CNC1=O)C(=O)N[C@@H](CCCCN)C(=O)N[C@H](C(=O)N[C@H](C(=O)N1CCC[C@H]1C(=O)N[C@@H](C)C(=O)O)C(C)C)CSSC[C@H](NC(=O)[C@H](CO)NC(=O)[C@H](CC(C)C)NC(=O)[C@H](CCC(=O)O)NC3=O)C(=O)N[C@@H](CCCNC(=N)N)C(=O)N[C@@H](CO)C(=O)N[C@@H](CC(C)C)C(=O)NCC(=O)N[C@@H](CC(C)C)C(=O)N[C@@H](CC(C)C)C(=O)NCC(=O)N[C@@H](CCCCN)C(=O)N2 (H-AFCNLRRCELSCRSLGLLGKCIGEECKCVPA-OH; disulfide 3-21, 8-26, 12-28)
40% | < 39% | CC[C@H](C)[C@@H]1NC(=O)[C@@H]2CSSC[C@H](NC(=O)[C@H](Cc3ccccc3)NC(=O)[C@H](C)N)C(=O)N[C@@H](CC(N)=O)C(=O)N[C@@H](CC(C)C)C(=O)N[C@@H](CCCNC(=N)N)C(=O)N[C@@H](CCCNC(=N)N)C(=O)N[C@H]3CSSC[C@H](NC(=O)[C@H](CCC(=O)O)NC(=O)[C@H](CCC(=O)O)NC(=O)CNC1=O)C(=O)N[C@@H](CCCCN)C(=O)N[C@H](C(=O)N[C@H](C(=O)N1CCC[C@H]1C(=O)N[C@@H](Cc1ccc(O)cc1)C(=O)N[C@@H](CC(N)=O)C(=O)O)C(C)C)CSSC[C@H](NC(=O)[C@H](CO)NC(=O)[C@H](CC(C)C)NC(=O)[C@H](CCC(=O)O)NC3=O)C(=O)N[C@@H](CCCNC(=N)N)C(=O)N[C@@H](CO)C(=O)N[C@@H](CC(C)C)C(=O)NCC(=O)N[C@@H](CC(C)C)C(=O)N[C@@H](CC(C)C)C(=O)NCC(=O)N[C@@H](CCCCN)C(=O)N2 (H-AFCNLRRCELSCRSLGLLGKCIGEECKCVPYN-OH; disulfide 3-21, 8-26, 12-28)
40% | < 39% | CC[C@H](C)[C@@H]1NC(=O)[C@@H]2CSSC[C@H](NC(=O)[C@H](Cc3ccccc3)NC(=O)[C@H](C)N)C(=O)N[C@@H](CC(N)=O)C(=O)N[C@@H](CC(C)C)C(=O)N[C@@H](CCCNC(=N)N)C(=O)N[C@@H](CCCNC(=N)N)C(=O)N[C@H]3CSSC[C@H](NC(=O)[C@H](CCC(=O)O)NC(=O)[C@H](CCC(=O)O)NC(=O)CNC1=O)C(=O)N[C@@H](CCCCN)C(=O)N[C@H](C(=O)N[C@H](C(=O)N[C@@H](Cc1ccc(O)cc1)C(=O)O)C(C)C)CSSC[C@H](NC(=O)[C@H](CO)NC(=O)[C@H](CC(C)C)NC(=O)[C@H](CCC(=O)O)NC3=O)C(=O)N[C@@H](CCCNC(=N)N)C(=O)N[C@@H](CO)C(=O)N[C@@H](CC(C)C)C(=O)NCC(=O)N[C@@H](CC(C)C)C(=O)N[C@@H](CC(C)C)C(=O)NCC(=O)N[C@@H](CCCCN)C(=O)N2 (H-AFCNLRRCELSCRSLGLLGKCIGEECKCVY-OH; disulfide 3-21, 8-26, 12-28)
40% | < 39% | CC[C@H](C)[C@@H]1NC(=O)[C@@H]2CSSC[C@H](NC(=O)[C@H](Cc3ccccc3)NC(=O)[C@H](C)N)C(=O)N[C@@H](CC(N)=O)C(=O)N[C@@H](CC(C)C)C(=O)N[C@@H](CCCNC(=N)N)C(=O)N[C@@H](CCCNC(=N)N)C(=O)N[C@H]3CSSC[C@H](NC(=O)[C@H](CCC(=O)O)NC(=O)[C@H](CCC(=O)O)NC(=O)CNC1=O)C(=O)N[C@@H](CCCCN)C(=O)N[C@H](C(=O)N[C@H](C(=O)N1CCC[C@H]1C(=O)N[C@@H](Cc1c[nH]cn1)C(=O)O)C(C)C)CSSC[C@H](NC(=O)[C@H](CO)NC(=O)[C@H](CC(C)C)NC(=O)[C@H](CCC(=O)O)NC3=O)C(=O)N[C@@H](CCCNC(=N)N)C(=O)N[C@@H](CO)C(=O)N[C@@H](CC(C)C)C(=O)NCC(=O)N[C@@H](CC(C)C)C(=O)N[C@@H](CC(C)C)C(=O)NCC(=O)N[C@@H](CCCCN)C(=O)N2 (H-AFCNLRRCELSCRSLGLLGKCIGEECKCVPH-OH; disulfide 3-21, 8-26, 12-28)
> 85% | inactive | CC[C@H](C)[C@@H]1NC(=O)[C@@H]2CSSC[C@H](NC(=O)[C@H](Cc3ccccc3)NC(=O)[C@H](C)N)C(=O)N[C@@H](CC(N)=O)C(=O)N[C@@H](CC(C)C)C(=O)N[C@@H](CCCNC(=N)N)C(=O)N[C@@H](CCCNC(=N)N)C(=O)N[C@H]3CSSC[C@H](NC(=O)[C@H](CCC(=O)O)NC(=O)[C@H](CCC(=O)O)NC(=O)CNC1=O)C(=O)N[C@@H](CCCCN)C(=O)N[C@H](C(=O)N[C@H](C(=O)N1CCC[C@H]1C(=O)N[C@@H](Cc1ccc(O)cc1)C(=O)O)C(C)C)CSSC[C@H](NC(=O)[C@H](CO)NC(=O)[C@H](CC(C)C)NC(=O)[C@H](CCC(=O)O)NC3=O)C(=O)N[C@@H](CCCNC(=N)N)C(=O)N[C@@H](CO)C(=O)N[C@@H](CC(C)C)C(=O)NCC(=O)N[C@@H](CC(C)C)C(=O)N[C@@H](CC(C)C)C(=O)NCC(=O)N[C@@H](C)C(=O)N2 (H-AFCNLRRCELSCRSLGLLGACIGEECKCVPY-OH; disulfide 3-21, 8-26, 12-28)
< 39% | 40% | CC[C@H](C)[C@@H]1NC(=O)[C@@H]2CSSC[C@H](NC(=O)[C@H](Cc3ccccc3)NC(=O)[C@H](C)N)C(=O)N[C@@H](CC(N)=O)C(=O)N[C@@H](CC(C)C)C(=O)N[C@@H](CCCNC(=N)N)C(=O)N[C@@H](CCCNC(=N)N)C(=O)N[C@H]3CSSC[C@H](NC(=O)[C@H](CCC(=O)O)NC(=O)[C@H](CCC(=O)O)NC(=O)CNC1=O)C(=O)N[C@@H](CCC(=O)O)C(=O)N[C@H](C(=O)N[C@H](C(=O)N1CCC[C@H]1C(=O)N[C@@H](Cc1ccc(O)cc1)C(=O)O)C(C)C)CSSC[C@H](NC(=O)[C@H](CO)NC(=O)[C@H](CC(C)C)NC(=O)[C@H](CCC(=O)O)NC3=O)C(=O)N[C@@H](CCCNC(=N)N)C(=O)N[C@@H](CO)C(=O)N[C@@H](CC(C)C)C(=O)NCC(=O)N[C@@H](CC(C)C)C(=O)N[C@@H](CC(C)C)C(=O)NCC(=O)N[C@@H](CCCCN)C(=O)N2 (H-AFCNLRRCELSCRSLGLLGKCIGEECECVPY-OH; disulfide 3-21, 8-26, 12-28)
< 39% | 40% | CC[C@H](C)[C@@H]1NC(=O)[C@@H]2CSSC[C@H](NC(=O)[C@H](Cc3ccccc3)NC(=O)[C@H](C)N)C(=O)N[C@@H](CC(N)=O)C(=O)N[C@@H](CC(C)C)C(=O)N[C@@H](CCCNC(=N)N)C(=O)N[C@@H](CCCNC(=N)N)C(=O)N[C@H]3CSSC[C@H](NC(=O)[C@H](CCCCN)NC(=O)[C@H](CCC(=O)O)NC(=O)CNC1=O)C(=O)N[C@@H](CCCCN)C(=O)N[C@H](C(=O)N[C@H](C(=O)N1CCC[C@H]1C(=O)N[C@@H](Cc1ccc(O)cc1)C(=O)O)C(C)C)CSSC[C@H](NC(=O)[C@H](CO)NC(=O)[C@H](CC(C)C)NC(=O)[C@H](CCC(=O)O)NC3=O)C(=O)N[C@@H](CCCNC(=N)N)C(=O)N[C@@H](CO)C(=O)N[C@@H](CC(C)C)C(=O)NCC(=O)N[C@@H](CC(C)C)C(=O)N[C@@H](CC(C)C)C(=O)NCC(=O)N[C@@H](CCCCN)C(=O)N2 (H-AFCNLRRCELSCRSLGLLGKCIGEKCKCVPY-OH; disulfide 3-21, 8-26, 12-28)
< 39% | 40% | CC[C@H](C)[C@@H]1NC(=O)[C@@H]2CSSC[C@H](NC(=O)[C@H](Cc3ccccc3)NC(=O)[C@H](C)N)C(=O)N[C@@H](CC(N)=O)C(=O)N[C@@H](CC(C)C)C(=O)N[C@@H](CCCNC(=N)N)C(=O)N[C@@H](CCCNC(=N)N)C(=O)N[C@H]3CSSC[C@H](NC(=O)[C@H](CCC(=O)O)NC(=O)[C@H](CCC(=O)O)NC(=O)CNC1=O)C(=O)N[C@@H](C)C(=O)N[C@H](C(=O)N[C@H](C(=O)N1CCC[C@H]1C(=O)N[C@@H](Cc1ccc(O)cc1)C(=O)O)C(C)C)CSSC[C@H](NC(=O)[C@H](CO)NC(=O)[C@H](CC(C)C)NC(=O)[C@H](CCC(=O)O)NC3=O)C(=O)N[C@@H](CCCNC(=N)N)C(=O)N[C@@H](CO)C(=O)N[C@@H](CC(C)C)C(=O)NCC(=O)N[C@@H](CC(C)C)C(=O)N[C@@H](CC(C)C)C(=O)NCC(=O)N[C@@H](CCCCN)C(=O)N2 (H-AFCNLRRCELSCRSLGLLGKCIGEECACVPY-OH; disulfide 3-21, 8-26, 12-28)
< 39% | 40% | CC[C@H](C)[C@@H]1NC(=O)[C@@H]2CSSC[C@H](NC(=O)[C@H](Cc3ccccc3)NC(=O)[C@H](C)N)C(=O)N[C@@H](CC(N)=O)C(=O)N[C@@H](CC(C)C)C(=O)N[C@@H](CCCNC(=N)N)C(=O)N[C@@H](CCCNC(=N)N)C(=O)N[C@H]3CSSC[C@H](NC(=O)[C@H](C)NC(=O)[C@H](CCC(=O)O)NC(=O)CNC1=O)C(=O)N[C@@H](CCCCN)C(=O)N[C@H](C(=O)N[C@H](C(=O)N1CCC[C@H]1C(=O)N[C@@H](Cc1ccc(O)cc1)C(=O)O)C(C)C)CSSC[C@H](NC(=O)[C@H](CO)NC(=O)[C@H](CC(C)C)NC(=O)[C@H](CCC(=O)O)NC3=O)C(=O)N[C@@H](CCCNC(=N)N)C(=O)N[C@@H](CO)C(=O)N[C@@H](CC(C)C)C(=O)NCC(=O)N[C@@H](CC(C)C)C(=O)N[C@@H](CC(C)C)C(=O)NCC(=O)N[C@@H](CCCCN)C(=O)N2 (H-AFCNLRRCELSCRSLGLLGKCIGEACKCVPY-OH; disulfide 3-21, 8-26, 12-28)
